# Reference: ChEMBL document CHEMBL1201861, “Genomics of Drug Sensitity in Cancer screening data, Wellcome Trust Sanger Institute”
# Experiments:
# Assay in all cases: cells
# Assay type in all cases: functional, cell-based, Homo sapiens
# GP5d = settings: Homo sapiens, GP5d;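 also: growth inhibition of human GP5d cells, read out with a cell viability assay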
# Description: SANGER: Inhibition of human GP5d cell growth in a cell viability assay.
# MHH-CALL-2 = settings: Homo sapiens, MHH-CALL-2;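 also: growth inhibition of the cell line, read out in a cell viability assay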
# Description: SANGER: Inhibition of human MHH-CALL-2 cell growth in a cell viability assay.
# NCI-H2009 = settings: Homo sapiens, NCI-H2009;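 also: cell viability assay measuring inhibition of NCI-H2009 cell growth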
# Description: SANGER: Inhibition of human NCI-H2009 cell growth in a cell viability assay.
# SR = settings: Homo sapiens, SR
# Description: SANGER: Inhibition of human SR cell growth in a cell viability assay.
# COLO-741 = settings: Homo sapiens, COLO-741
# Description: SANGER: Inhibition of human COLO-741 cell growth in a cell viability assay.
# SK-MM-2 = settings: Homo sapiens, SK-MM-2;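 also: growth inhibition of human SK-MM-2 cells, read out with a cell viability assay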
# Description: SANGER: Inhibition of human SK-MM-2 cell growth in a cell viability assay.
# PANC-08-13 = settings: Homo sapiens, PANC-08-13;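 also: cell growth inhibition, measured with a cell viability assay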
# Description: SANGER: Inhibition of human PANC-08-13 cell growth in a cell viability assay.
# SK-MEL-24 = settings: Homo sapiens, SK-MEL-24;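 also: growth inhibition read out by a cell viability assay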
# Description: SANGER: Inhibition of human SK-MEL-24 cell growth in a cell viability assay.
# TE-441-T = settings: Homo sapiens, TE-441-T
# Description: SANGER: Inhibition of human TE-441-T cell growth in a cell viability assay.
# BFTC-905 = settings: Homo sapiens, BFTC-905
# Description: SANGER: Inhibition of human BFTC-905 cell growth in a cell viability assay.
# MKN-28 = settings: Homo sapiens, MKN-28;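 also: cell viability assay read-out, IC50 reflects suppression of growth of human MKN-28 cells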
# Description: SANGER: Inhibition of human MKN28 cell growth in a cell viability assay.
# U-118-MG = settings: Homo sapiens, U-118-MG
# Description: SANGER: Inhibition of human U-118-MG cell growth in a cell viability assay.
# RO82-W-1 = settings: Homo sapiens, RO82-W-1;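 also: growth inhibition of human RO82-W-1 cells, measured with a cell viability assay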
# Description: SANGER: Inhibition of human RO82-W-1 cell growth in a cell viability assay.
# M059J = settings: Homo sapiens, M059J;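 also: growth inhibition of M059J cells, read out with a cell viability assay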
# Description: SANGER: Inhibition of human M059J cell growth in a cell viability assay.
# TYK-nu = settings: Homo sapiens, TYK-nu;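 also: growth inhibition of human TYK-nu cells, read out by a cell viability assay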
# Description: SANGER: Inhibition of human TYK-nu cell growth in a cell viability assay.
# NCI-H1755 = settings: Homo sapiens, NCI-H1755;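 also: cell viability readout used to measure growth inhibition of NCI-H1755 cells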
# Description: SANGER: Inhibition of human NCI-H1755 cell growth in a cell viability assay.
# HT-3 = settings: Homo sapiens, HT-3;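 also: growth inhibition measured with a cell viability readout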
# Description: SANGER: Inhibition of human HT-3 cell growth in a cell viability assay.
# UMC-11 = settings: Homo sapiens, UMC-11;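 also: growth inhibition of UMC-11 cells, read out with a cell viability assay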
# Description: SANGER: Inhibition of human UMC-11 cell growth in a cell viability assay.
# NCI-H1694 = settings: Homo sapiens, NCI-H1694;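 also: cell viability assay measuring inhibition of growth in human NCI-H1694 cells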
# Description: SANGER: Inhibition of human NCI-H1694 cell growth in a cell viability assay.
# NCI-H441 = settings: Homo sapiens, NCI-H441;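 also: growth inhibition of NCI-H441 cells, read out with a cell viability assay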
# Description: SANGER: Inhibition of human NCI-H441 cell growth in a cell viability assay.
# SAOS-2 = settings: Homo sapiens, SAOS-2;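 also: growth inhibition of human Saos-2 cells determined by a cell viability assay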
# Description: SANGER: Inhibition of human Saos-2 cell growth in a cell viability assay.
# NCI-H524 = settings: Homo sapiens, NCI-H524;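 also: growth inhibition of human NCI-H524 cells, read out through a cell viability assay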
# Description: SANGER: Inhibition of human NCI-H524 cell growth in a cell viability assay.
# SNU-387 = settings: Homo sapiens, SNU-387
# Description: SANGER: Inhibition of human SNU-387 cell growth in a cell viability assay.
# NCI-H2052 = settings: Homo sapiens, NCI-H2052;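 also: growth inhibition of NCI-H2052 cells, read out with a cell viability assay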
# Description: SANGER: Inhibition of human NCI-H2052 cell growth in a cell viability assay.
# Daudi = settings: Homo sapiens, Daudi;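 also: growth inhibition of Daudi cells, read out by a viability assay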
# Description: SANGER: Inhibition of human Daudi cell growth in a cell viability assay.
# ESS-1 = settings: Homo sapiens, ESS-1;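 also: growth inhibition of human ESS-1 cells, read out by a cell viability assay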
# Description: SANGER: Inhibition of human ESS-1 cell growth in a cell viability assay.
# C32 = settings: Homo sapiens, C32;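 also: cell viability assay, with IC50 reflecting inhibition of C32 cell growth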
# Description: SANGER: Inhibition of human C32 cell growth in a cell viability assay.
# SW-620 = settings: Homo sapiens, SW-620;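 also: growth inhibition of human SW-620 cells, measured by a cell viability assay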
# Description: SANGER: Inhibition of human SW620 cell growth in a cell viability assay.
# NCI-H1436 = settings: Homo sapiens, NCI-H1436;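 also: growth suppression of human NCI-H1436 cells, determined with a cell viability readout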
# Description: SANGER: Inhibition of human NCI-H1436 cell growth in a cell viability assay.
# RVH-421 = settings: Homo sapiens, RVH-421
# Description: SANGER: Inhibition of human RVH-421 cell growth in a cell viability assay.
# RPMI-2650 = settings: Homo sapiens, RPMI-2650
# Description: SANGER: Inhibition of human RPMI-2650 cell growth in a cell viability assay.
# CAL-33 = settings: Homo sapiens, CAL-33;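 also: growth inhibition of CAL-33 cells, read out with a cell viability assay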
# Description: SANGER: Inhibition of human CAL-33 cell growth in a cell viability assay.
# HuP-T3 = settings: Homo sapiens, HuP-T3;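 also: HuP-T3 cell growth inhibition, read out with a cell viability assay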
# Description: SANGER: Inhibition of human HuP-T3 cell growth in a cell viability assay.
# ABC-1 = settings: Homo sapiens, ABC-1;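 also: growth inhibition of human ABC-1 cells, read out by a cell viability assay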
# Description: SANGER: Inhibition of human ABC-1 cell growth in a cell viability assay.
# EFO-27 = settings: Homo sapiens, EFO-27;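 also: growth inhibition of EFO-27 cells, read out with a cell viability assay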
# Description: SANGER: Inhibition of human EFO-27 cell growth in a cell viability assay.
# HOP-92 = settings: Homo sapiens, HOP-92;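 also: cell viability readout, with IC50 reflecting inhibition of HOP-92 cell growth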
# Description: SANGER: Inhibition of human HOP-92 cell growth in a cell viability assay.
# HuP-T4 = settings: Homo sapiens, HuP-T4;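 also: cell viability assay measuring how much HuP-T4 cell growth is inhibited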
# Description: SANGER: Inhibition of human HuP-T4 cell growth in a cell viability assay.
# LP-1 = settings: Homo sapiens, LP-1;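 also: growth inhibition of human LP-1 cells, with the read-out taken from a cell viability assay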
# Description: SANGER: Inhibition of human LP-1 cell growth in a cell viability assay.
# ACHN = settings: Homo sapiens, ACHN;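 also: cell viability read-out used to gauge how strongly growth of human ACHN cells is suppressed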
# Description: SANGER: Inhibition of human ACHN cell growth in a cell viability assay.
# CAL-120 = settings: Homo sapiens, CAL-120;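 also: cell growth inhibition, read out as cell viability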
# Description: SANGER: Inhibition of human CAL-120 cell growth in a cell viability assay.
# NCI-H292 = settings: Homo sapiens, NCI-H292;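 also: growth inhibition of NCI-H292 cells, read out with a cell viability assay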
# Description: SANGER: Inhibition of human NCI-H292 cell growth in a cell viability assay.
# NCI-H2170 = settings: Homo sapiens, NCI-H2170;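 also: cell viability assay measuring growth inhibition of human NCI-H2170 cancer cells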
# Description: SANGER: Inhibition of human NCI-H2170 cell growth in a cell viability assay.
# YKG-1 = settings: Homo sapiens, YKG-1;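 also: cell growth inhibition, read out with a viability assay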
# Description: SANGER: Inhibition of human YKG-1 cell growth in a cell viability assay.
# COLO-678 = settings: Homo sapiens, COLO-678
# Description: SANGER: Inhibition of human COLO-678 cell growth in a cell viability assay.
# NCI-H2452 = settings: Homo sapiens, NCI-H2452;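 also: growth inhibition of NCI-H2452 cells, read out with a cell viability assay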
# Description: SANGER: Inhibition of human NCI-H2452 cell growth in a cell viability assay.
# Calu-3 = settings: Homo sapiens, Calu-3;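 also: growth inhibition of human Calu-3 cells, determined with a cell viability assay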
# Description: SANGER: Inhibition of human Calu-3 cell growth in a cell viability assay.
compound,measurement,setting,value
Cc1cc([N+](=O)[O-])ccc1NS(=O)(=O)c1cc(Cl)ccc1Cl,IC50,GP5d,1.14 µM
same,IC50,MHH-CALL-2,18.2 µM
same,IC50,NCI-H2009,2.69 µM
same,IC50,SR,4.95 µM
same,IC50,COLO-741,4.49 µM
same,IC50,SK-MM-2,> 32 µM
same,IC50,PANC-08-13,> 32 µM
same,IC50,SK-MEL-24,6.27 µM
same,IC50,TE-441-T,7.31 µM
same,IC50,BFTC-905,3.65 µM
same,IC50,MKN-28,4.37 µM
same,IC50,U-118-MG,> 32 µM
same,IC50,RO82-W-1,> 32 µM
same,IC50,M059J,5.94 µM
same,IC50,TYK-nu,2.01 µM
same,IC50,NCI-H1755,15.8 µM
same,IC50,HT-3,> 32 µM
same,IC50,UMC-11,1.09 µM
same,IC50,NCI-H1694,22.8 µM
same,IC50,NCI-H441,6.75 µM
same,IC50,SAOS-2,6.94 µM
same,IC50,NCI-H524,12.5 µM
same,IC50,SNU-387,7.66 µM
same,IC50,NCI-H2052,18.2 µM
same,IC50,Daudi,1.25 µM
same,IC50,ESS-1,7.38 µM
same,IC50,C32,< 0.125 µM
same,IC50,SW-620,3.93 µM
same,IC50,NCI-H1436,> 32 µM
same,IC50,RVH-421,0.931 µM
same,IC50,RPMI-2650,1.98 µM
same,IC50,CAL-33,3.56 µM
same,IC50,HuP-T3,11.2 µM
same,IC50,ABC-1,3.41 µM
same,IC50,EFO-27,4.83 µM
same,IC50,HOP-92,2.81 µM
same,IC50,HuP-T4,1.68 µM
same,IC50,LP-1,10.6 µM
same,IC50,ACHN,4.6 µM
same,IC50,CAL-120,6.02 µM
same,IC50,NCI-H292,11.3 µM
same,IC50,NCI-H2170,1.44 µM
same,IC50,YKG-1,5.66 µM
same,IC50,COLO-678,10.9 µM
same,IC50,NCI-H2452,> 32 µM
same,IC50,Calu-3,2.87 µM
Oc1ccc2ccccc2c1SSc1c(O)ccc2ccccc12,IC50,GP5d,> 32 µM
same,IC50,MHH-CALL-2,> 32 µM
same,IC50,NCI-H2009,5.04 µM
same,IC50,SR,5.37 µM
same,IC50,COLO-741,18 µM
same,IC50,SK-MM-2,> 32 µM
same,IC50,PANC-08-13,> 32 µM
same,IC50,SK-MEL-24,> 32 µM
same,IC50,TE-441-T,11.5 µM
same,IC50,BFTC-905,5.15 µM
same,IC50,MKN-28,17.3 µM
same,IC50,U-118-MG,> 32 µM
same,IC50,RO82-W-1,> 32 µM
same,IC50,M059J,> 32 µM
same,IC50,TYK-nu,> 32 µM
same,IC50,NCI-H1755,> 32 µM
same,IC50,HT-3,> 32 µM
same,IC50,UMC-11,> 32 µM
same,IC50,NCI-H1694,> 32 µM
same,IC50,NCI-H441,> 32 µM
same,IC50,SAOS-2,> 32 µM
same,IC50,NCI-H524,> 32 µM
same,IC50,SNU-387,> 32 µM
same,IC50,NCI-H2052,> 32 µM
same,IC50,Daudi,5.68 µM
same,IC50,ESS-1,> 32 µM
same,IC50,C32,> 32 µM
same,IC50,SW-620,> 32 µM
same,IC50,NCI-H1436,> 32 µM
same,IC50,RVH-421,> 32 µM
same,IC50,RPMI-2650,> 32 µM
same,IC50,CAL-33,> 32 µM
same,IC50,HuP-T3,> 32 µM
same,IC50,ABC-1,> 32 µM
same,IC50,EFO-27,> 32 µM
same,IC50,HOP-92,> 32 µM
same,IC50,HuP-T4,> 32 µM
same,IC50,LP-1,30.5 µM
same,IC50,ACHN,> 32 µM
same,IC50,CAL-120,> 32 µM
same,IC50,NCI-H292,> 32 µM
same,IC50,NCI-H2170,> 32 µM
same,IC50,YKG-1,> 32 µM
same,IC50,COLO-678,> 32 µM
same,IC50,NCI-H2452,> 32 µM
same,IC50,Calu-3,> 32 µM
